Assay results: patent publication US4851338A, “Method for diagnosing the presence of bacteria” (Biocarb AB, priority 1982, dated 1989)

How the values were obtained:
[1] = system: haemagglutination between sheep erythrocytes and S. saprophyticus bacteria (Mc 2 and Mc 194); experiment: Inhibition of haemagglutination of sheep erythrocytes with Staphylococcus saprophyticus; assay type: cell-based; settings: for minimal effective concentration: Staphylococcus saprophyticus, Erythrocyte, read-out: Minimum inhibitory con.; for Minimum inhibitory con.: Inhibition of haemagglutination, S. saprophyticus Mc 2 and Mc 194, 2 HU bacteria
Method: In the tests the bacteria S. saprophyticus strains, both isolated from urine from patents having urinary tract infection, were used. The bacteria were cultivated in tryptone broth over night, pelletized by means of centrifugation and washed twice with PBS, pH 7.2. Haemagglutination was performed using erythrocytes from sheep obtained from sheep blood and washed twice with 0.85 % saline.
In the haemagglutination-indication experiments microtitre plates (Limbo Sc. Comp. Inc) were used. 25 μl of bacterial suspension were titrated in PBS by two-step titre steps, 25 μl of 1% erythrocyte suspension being then added. The haemagglutination titre was determined after incubation of the plates for 2-4 hours in room temperature.
In the inhibition experiments serial dilutions of the relevant inhibitor (50 μl/well) and 25 μl of bacterial suspension diluted to contain 2 HU haemagglutinating units of bacteria were used. The plates were incubated for 30 minutes at 37° C., 25 μl of the erythrocyte suspension being then added to each well.

[2] = system: NK-cells activity (lymphocytes) against K-562 cells; experiment: Inhibition of NK-cells activity (chromium release cytotoxicity of lymphocytes against K-562); assay type: cell-based, human; settings: for % specific cytotoxicity: ratio 20:1
Method: Lymphocytes isolated from peripheral blood drained from normal donors have the ability of exerting a cytotoxic, (i.e. cell killing activity against certain types of cells in culture. In the instant example there is used a human leukemia cell line called K-562 as a target cell for such cytolytic activity.
Method: K-562 cells intracellularly labelled with radioactive chromium are incubated with effector cells (lymphocytes) for 4 hours at 37° C. The cytotoxic effect is measured as the quantity of isotope released in relation to remaining isotope in the target cells. For details see Malmstrom, P., Jonsson, Å, and Sjogren, H.O. "Countercurrent distribution of lymphocytes from human peripheral blood in an aqueous two-phase system. II. Separation into subsets of lymphocytes with distinctive functions". Cell Immunol. 53:51-64, 1980. For studying inhibiting substances effector cells (6×10^6 cells/ml) are preincubated with the respective oligosaccharides diluted in cultivating medium for half an hour at 37° C. After washing with centrifugation the effector cells are transferred directly to the target cells.

[3] = system: adhesion of S. saprophyticus to urinary epithelial cells; experiment: Inhibition of adherence of S. saprophyticus to urinary epithelial cells; assay type: cell-based, Staphylococcus saprophyticus
Method: Cells from urinary epithelium were suspended in cell cultivation medium RPMI 1640 (Flow Ltd) to a concentration of 10^5 cells/ml.
Microorganisms of the type S. saprophyticus were suspended in RPMI 1640 to a concentration of 10^9 bacteria/ml. Oligosaccharides which were tested for their ability of preventing adhesion of S. saprophyticus to urinary epithelial cells were dissolved in RPMI 1640 to a concentration of 5 mg/ml. In the experiments 1 ml of the oligosaccharide solution was incubated with 0.1 ml bacterial suspension at 37° C. for 30 minutes. Urinary epithelial cells were incubated with the bacterial suspension incubated in advance as described above with oligosaccharide solution for 45 minutes at 37° C. As a control there was used a bacterial suspension preincubated with 1 ml RPMI 1640.
Incubated samples were filtrated through a 12μ filter and washed 3 times with PBS. The filter was pressed against microscope slides for a few seconds, the slides being then fixed in methanol for 10 minutes. The slides were dried in air and coloured with acridine orange for 2 minutes. The slides were washed, dried in air and studies in fluorescence microscope. The number of bacteria per cell was counted. In each experiment 50 cells were counted.

[4] = 0.3 mg/ml oligosaccharide, experiment 1 (without inhibitor 22.3)
[5] = 0.3 mg/ml oligosaccharide, experiment 2 (without inhibitor 32.0)
[6] = 1 mg/ml oligosaccharide, experiment 1 (without inhibitor 22.3)
[7] = 1 mg/ml oligosaccharide, experiment 2 (without inhibitor 32.0)
[8] = 3 mg/ml oligosaccharide, experiment 1 (without inhibitor 22.3)
[9] = 3 mg/ml oligosaccharide, experiment 2 (without inhibitor 32.0)

## OC[C@H]1O[C@@H](OC[C@H]2OC(O)[C@H](O)[C@@H](O)[C@H]2O)[C@H](O)[C@@H](O)[C@H]1O (stereo partly drawn) [β-Galp-(1-6)-Gal]
[1]
  minimal effective concentration: > 2500 µg/mL

## OC[C@H]1O[C@@H](O[C@H]2[C@@H](O)[C@@H](CO)O[C@@H](O[C@H]3[C@@H](O)[C@@H](CO)OC(O)[C@@H]3O)[C@@H]2O)[C@H](O)[C@@H](O)[C@H]1O (stereo partly drawn) [β-Galp-(1-3)-β-Galp-(1-3)-Gal]
[1]
  minimal effective concentration: > 2500 µg/mL

## Transferrin (human): Transferrin (human)
[1]
  Minimum inhibitory con.: > 2500 µg/mL

## CC(=O)NC1C(O)CC(OC2C(O)C(CO)OC(OC3C(CO)OC(O)C(O)C3O)C2O)(C(=O)O)OC1C(O)C(O)CO (stereo not drawn) [3'siallyl-lactose, α-NeuNAcp-(2-3)-β-Galp-(1-4)-Glc, reference compound]
[1]
  minimal effective concentration: > 2500 µg/mL
[2]; [4]
  % specific cytotoxicity: 23.9%
[2]; [5]
  % specific cytotoxicity: 28.7%
[2]; [6]
  % specific cytotoxicity: 25.2%
[2]; [7]
  % specific cytotoxicity: 19.7%
[2]; [8]
  % specific cytotoxicity: 20.0%
[2]; [9]
  % specific cytotoxicity: 19.1%

## CC(=O)N[C@H]1[C@H](O[C@H]2[C@@H](O)[C@@H](CO)O[C@@H](O[C@H]3[C@H](O)[C@@H](O)C(O)O[C@@H]3CO)[C@@H]2O)O[C@H](CO)[C@@H](O)[C@@H]1O[C@@H]1O[C@H](CO)[C@H](O)[C@H](O)[C@H]1O (stereo partly drawn) [β-Galp-(1-3)-β-GNAcp-(1-3)-β-Galp-(1-4)-Glc]
[1]
  minimal effective concentration: > 2500 µg/mL

## OC[C@H]1O[C@@H](O[C@H]2[C@H](O)[C@@H](O)C(O)O[C@@H]2CO)[C@H](O)[C@@H](O)[C@H]1O (stereo partly drawn) [β-Galp-(1-4)-Glc, reference compound]
[3]; oligosaccharide 5 mg/ml, in comparison with the control test without oligosaccharides
  reduction of the number of adhering bacteria (in words): did not reduce the number of adhering bacteria
[1]
  minimal effective concentration: > 2500 µg/mL

## OC[C@H]1O[C@H](O[C@H]2[C@@H](O)[C@@H](CO)OC(O)[C@@H]2O)[C@H](O)[C@@H](O)[C@H]1O (stereo partly drawn) [α-Galp-(1-3)-Gal]
[1]
  minimal effective concentration: > 2500 µg/mL

## CO[C@@H]1O[C@H](CO)[C@@H](O[C@@H]2O[C@H](CO)[C@H](O)[C@H](O)[C@H]2O)[C@H](O)[C@H]1NC(C)=O [β-Galp-(1-4)-β-GNAcp-(1-0)-CH3]
[3]; Staphylococcus saprophyticus, Epithelial cell, 0.75 h, read-out: reduction of the number of adhering bacteria
  inhibition at 5000 µg/mL: ~95%
[1]
  minimal effective concentration: 250 µg/mL

## OC[C@H]1O[C@@H](O[C@H]2[C@@H](O)[C@@H](CO)OC(O)[C@@H]2O)[C@H](O)[C@@H](O)[C@H]1O (stereo partly drawn) [β-Galp-(1-3)-Gal]
[1]
  minimal effective concentration: > 2500 µg/mL

## OC[C@H]1O[C@H](O[C@@H]2[C@H](O)[C@@H](O)[C@H](O[C@H]3[C@H](O)[C@@H](O)C(O)O[C@@H]3CO)O[C@@H]2CO)[C@H](O)[C@@H](O)[C@H]1O (stereo partly drawn) [α-Galp-(1-4)-β-Galp-(1-4)-Glc]
[1]
  minimal effective concentration: > 2500 µg/mL

## CC(=O)N[C@H]1[C@H](O[C@@H]2[C@H](O)[C@@H](O)[C@H](O[C@H]3[C@H](O)[C@@H](O)C(O)O[C@@H]3CO)O[C@@H]2CO)O[C@H](CO)[C@@H](O[C@@H]2O[C@H](CO)[C@H](O)[C@H](O)[C@H]2O)[C@@H]1O (stereo partly drawn) [β-Gal-(1-4)-β--GNAc-(1-4)-β-Gal-(1-4)-Glc]
[3]; oligosaccharide 5 mg/ml, preincubated 30 min at 37° C., then 45 min with cells, vs control without oligosaccharides
  reduction of the number of adhering bacteria: ~96%

## Asialotransferrin (human): Asialotransferrin (human)
[1]
  Minimum inhibitory con.: 250 µg/mL

## CC(=O)N[C@H]1[C@H](O[C@H]2[C@@H](O)[C@@H](CO)O[C@H](O[C@@H]3[C@H](O)[C@@H](O)[C@H](O[C@H]4[C@H](O)[C@@H](O)C(O)O[C@@H]4CO)O[C@@H]3CO)[C@@H]2O)O[C@H](CO)[C@H](O)[C@@H]1O (stereo partly drawn) [β-GalNAcp-(1-3)-α-Galp-(1-4)-β-Galp-(1-4)-Glc]
[1]
  minimal effective concentration: > 2500 µg/mL

## CC(=O)NC1C(O)CC(OCC2OC(OC3C(CO)OC(O)C(O)C3O)C(O)C(O)C2O)(C(=O)O)OC1C(O)C(O)CO (stereo not drawn) [6'siallyl-lactose, α-NeuNAcp-(2-6)-β-Galp-(1-4)-Glc, reference compound]
[1]
  minimal effective concentration: > 2500 µg/mL
[2]; [4]
  % specific cytotoxicity: 21.3%
[2]; [5]
  % specific cytotoxicity: 20.2%
[2]; [6]
  % specific cytotoxicity: 15.8%
[2]; [7]
  % specific cytotoxicity: 17.2%
[2]; [8]
  % specific cytotoxicity: 9.6%
[2]; [9]
  % specific cytotoxicity: 15.1%

## CC(=O)N[C@H]1[C@H](O[C@@H]2[C@@H](OC[C@H]3O[C@@H](O[C@H]4[C@H](O)[C@@H](NC(C)=O)C(O)O[C@@H]4CO)[C@@H](O)[C@@H](O[C@H]4O[C@H](CO)[C@@H](O)[C@H](O)[C@@H]4O[C@@H]4O[C@H](CO)[C@@H](O[C@@H]5O[C@H](CO)[C@H](O)[C@H](O)[C@H]5O)[C@H](O)[C@H]4NC(C)=O)[C@@H]3O)O[C@H](CO)[C@@H](O)[C@@H]2O)O[C@H](CO)[C@@H](O[C@@H]2O[C@H](CO)[C@H](O)[C@H](O)[C@H]2O)[C@@H]1O (stereo partly drawn) [GM1 -octa]
[1]
  minimal effective concentration: 200 µg/mL
[2]; [4]
  % specific cytotoxicity: 16.1%
[2]; [5]
  % specific cytotoxicity: 28.0%
[2]; [6]
  % specific cytotoxicity: 11.3%
[2]; [7]
  % specific cytotoxicity: 25.0%
[2]; [8]
  % specific cytotoxicity: 1.7%
[2]; [9]
  % specific cytotoxicity: 12.8%
[2]; in concentrations down to 0.3 mg/ml
  cytolytic effect after preincubation with the oligosaccharides: inhibited

## OC[C@H]1O[C@H](O[C@@H]2[C@H](O)[C@@H](O)C(O)O[C@@H]2CO)[C@H](O)[C@@H](O)[C@H]1O (stereo partly drawn) [α-Galp-(1-4)-Gal]
[1]
  minimal effective concentration: > 2500 µg/mL

## CC(=O)N[C@H]1[C@H](O[C@H]2[C@@H](O)[C@@H](CO)O[C@@H](O[C@H]3[C@H](O)[C@@H](O)C(O)O[C@@H]3CO)[C@@H]2O)O[C@H](CO)[C@@H](O[C@@H]2O[C@H](CO)[C@H](O)[C@H](O)[C@H]2O)[C@@H]1O (stereo partly drawn) [β-Galp-(1-4)-β-GNAcp-(1-3)-β-Galp-(1-4)-Glc]
[1]
  minimal effective concentration: 250 µg/mL

B1: Fetuin: Fetuin (protein, UniProt P12763 19-359, looked up)
Alpha-2-HS-glycoprotein: IPLDPVAGYKEPACDDPDTEQAALAAVDYINKHLPRGYKHTLNQIDSVKVWPRRPTGEVYDIEIDTLETTCHVLDPTPLANCSVRQQTQHAVEGDCDIHVLKQDGQFSVLFTKCDSSPDSAEDVRKLCPDCPLLAPLNDSRVVHAVEVALATFNAESNGSYLQLVEISRAQFVPLPVSVSVEFAVAATDCIAKEVVDPTKCNLLAEKQYGFCKGSVIQKALGGEDVRVTCTLFQTQPVIPQPQPDGAEAEAPSAVPDAAGPTPSAAGPPVASVVVGPSVVAVPLPLHRAHYDLRHTFSGVASVESSSGEAFHVGKTPIVGQPSIPGGPVRLCPGRIRYFKI
[1]
  Minimum inhibitory con.: > 2500 µg/mL
